Assay results published in the NIST ThermoML archive (doi:10.1021/acs.jced.8b00554).
“And” between values parts separate entries of the source, which are not always exact repeats. Equal values may be shown once. Numbers after ± are expanded uncertainties.

Test: xn = mol fraction of the nth substance listed
Settings: Liquid, Vibrating tube method

CCCCCCCCC [nonane] + CCCO
Settings | mass density
313.15 K, 18020 kPa, x2 = 0.4272 | 731.02 ± 4.7 kg/m3
313.15 K, 19000 kPa, x2 = 0.2315 | 725.04 ± 4.7 kg/m3
313.15 K, 19000 kPa, x2 = 0.3229 | 705.41 ± 4.5 kg/m3
313.15 K, 19000 kPa, x2 = 0.7021 | 757.45 ± 4.9 kg/m3
313.15 K, 19000 kPa, x2 = 0.8941 | 782.35 ± 5 kg/m3
313.15 K, 19010 kPa, x2 = 0.1231 | 682.1 ± 4.5 kg/m3 and 720.5 ± 4.7 kg/m3
313.15 K, 19010 kPa, x2 = 0.2315 | 685.8 ± 4.4 kg/m3
313.15 K, 19010 kPa, x2 = 0.4272 | 732.06 ± 4.7 kg/m3
313.15 K, 19020 kPa, x2 = 0.3229 | 729.37 ± 4.7 kg/m3
313.15 K, 19020 kPa, x2 = 0.4272 | 735.24 ± 4.7 kg/m3
313.15 K, 20000 kPa, x2 = 0.1231 | 721.22 ± 4.9 kg/m3
313.15 K, 20010 kPa, x2 = 0.1231 | 683.05 ± 4.4 kg/m3
313.15 K, 20010 kPa, x2 = 0.2315 | 686.85 ± 4.4 kg/m3
313.15 K, 20010 kPa, x2 = 0.4272 | 736 ± 4.7 kg/m3
313.15 K, 20010 kPa, x2 = 0.7021 | 758.2 ± 4.9 kg/m3
313.15 K, 20010 kPa, x2 = 0.8941 | 783.1 ± 5 kg/m3
313.15 K, 20020 kPa, x2 = 0.2315 | 725.78 ± 4.7 kg/m3
313.15 K, 20020 kPa, x2 = 0.3229 | 706.48 ± 4.6 kg/m3 and 730.09 ± 4.7 kg/m3
313.15 K, 20020 kPa, x2 = 0.4272 | 733.04 ± 4.7 kg/m3
323.15 K, 100 kPa, x2 = 0.1231 | 696.08 ± 4.5 kg/m3
323.15 K, 100 kPa, x2 = 0.2315 | 700.11 ± 4.5 kg/m3
323.15 K, 100 kPa, x2 = 0.3229 | 704.16 ± 4.5 kg/m3
323.15 K, 100 kPa, x2 = 0.4272 | 709.94 ± 4.5 kg/m3
323.15 K, 100 kPa, x2 = 0.7021 | 732.13 ± 4.7 kg/m3
323.15 K, 100 kPa, x2 = 0.8941 | 757.59 ± 4.8 kg/m3
323.15 K, 1000 kPa, x2 = 0.7021 | 732.62 ± 4.7 kg/m3
323.15 K, 1010 kPa, x2 = 0.1231 | 696.28 ± 4.5 kg/m3
323.15 K, 1010 kPa, x2 = 0.2315 | 700.63 ± 4.5 kg/m3
323.15 K, 1010 kPa, x2 = 0.3229 | 704.67 ± 4.5 kg/m3
323.15 K, 1010 kPa, x2 = 0.4272 | 710.4 ± 4.5 kg/m3
323.15 K, 1010 kPa, x2 = 0.8941 | 758.12 ± 4.8 kg/m3
323.15 K, 2000 kPa, x2 = 0.1231 | 697.28 ± 4.5 kg/m3
323.15 K, 2000 kPa, x2 = 0.8941 | 759.05 ± 4.9 kg/m3
323.15 K, 2010 kPa, x2 = 0.2315 | 701.62 ± 4.5 kg/m3
323.15 K, 2010 kPa, x2 = 0.3229 | 705.65 ± 4.5 kg/m3
323.15 K, 2010 kPa, x2 = 0.4272 | 711.37 ± 4.6 kg/m3
323.15 K, 2010 kPa, x2 = 0.7021 | 733.6 ± 4.7 kg/m3
323.15 K, 3010 kPa, x2 = 0.2315 | 702.6 ± 4.5 kg/m3
323.15 K, 3010 kPa, x2 = 0.3229 | 706.63 ± 4.5 kg/m3
323.15 K, 3010 kPa, x2 = 0.4272 | 712.36 ± 4.6 kg/m3
323.15 K, 3010 kPa, x2 = 0.8941 | 760 ± 4.9 kg/m3
323.15 K, 3020 kPa, x2 = 0.1231 | 698.25 ± 4.5 kg/m3
323.15 K, 3020 kPa, x2 = 0.7021 | 734.56 ± 4.7 kg/m3
323.15 K, 4000 kPa, x2 = 0.2315 | 703.57 ± 4.5 kg/m3
323.15 K, 4000 kPa, x2 = 0.4272 | 713.31 ± 4.6 kg/m3
323.15 K, 4000 kPa, x2 = 0.8941 | 760.92 ± 4.9 kg/m3
323.15 K, 4010 kPa, x2 = 0.1231 | 699.22 ± 4.5 kg/m3
323.15 K, 4010 kPa, x2 = 0.3229 | 707.6 ± 4.5 kg/m3
323.15 K, 4020 kPa, x2 = 0.7021 | 735.53 ± 4.7 kg/m3
323.15 K, 5010 kPa, x2 = 0.1231 | 700.18 ± 4.5 kg/m3
323.15 K, 5010 kPa, x2 = 0.2315 | 704.52 ± 4.5 kg/m3
323.15 K, 5010 kPa, x2 = 0.4272 | 714.28 ± 4.6 kg/m3
323.15 K, 5010 kPa, x2 = 0.7021 | 736.47 ± 4.7 kg/m3
323.15 K, 5010 kPa, x2 = 0.8941 | 761.84 ± 4.9 kg/m3
323.15 K, 5020 kPa, x2 = 0.3229 | 708.55 ± 4.5 kg/m3
323.15 K, 6010 kPa, x2 = 0.1231 | 701.13 ± 4.5 kg/m3
323.15 K, 6010 kPa, x2 = 0.2315 | 705.46 ± 4.5 kg/m3
323.15 K, 6010 kPa, x2 = 0.3229 | 709.51 ± 4.5 kg/m3
323.15 K, 6010 kPa, x2 = 0.4272 | 715.23 ± 4.6 kg/m3
323.15 K, 6010 kPa, x2 = 0.7021 | 737.41 ± 4.7 kg/m3
323.15 K, 6010 kPa, x2 = 0.8941 | 762.78 ± 4.9 kg/m3
323.15 K, 7000 kPa, x2 = 0.8941 | 763.69 ± 4.9 kg/m3
323.15 K, 7010 kPa, x2 = 0.3229 | 710.46 ± 4.5 kg/m3
323.15 K, 7020 kPa, x2 = 0.1231 | 702.05 ± 4.5 kg/m3
323.15 K, 7020 kPa, x2 = 0.2315 | 706.4 ± 4.5 kg/m3
323.15 K, 7020 kPa, x2 = 0.4272 | 716.18 ± 4.6 kg/m3
323.15 K, 7020 kPa, x2 = 0.7021 | 738.36 ± 4.7 kg/m3
323.15 K, 8010 kPa, x2 = 0.3229 | 711.38 ± 4.6 kg/m3
323.15 K, 8010 kPa, x2 = 0.4272 | 717.13 ± 4.6 kg/m3
323.15 K, 8010 kPa, x2 = 0.7021 | 739.3 ± 4.7 kg/m3
323.15 K, 8010 kPa, x2 = 0.8941 | 764.6 ± 4.9 kg/m3
323.15 K, 8020 kPa, x2 = 0.1231 | 702.98 ± 4.5 kg/m3
323.15 K, 8020 kPa, x2 = 0.2315 | 707.34 ± 4.5 kg/m3
323.15 K, 9000 kPa, x2 = 0.2315 | 708.26 ± 4.5 kg/m3
323.15 K, 9000 kPa, x2 = 0.7021 | 740.23 ± 4.7 kg/m3
323.15 K, 9010 kPa, x2 = 0.1231 | 703.89 ± 4.5 kg/m3
323.15 K, 9010 kPa, x2 = 0.4272 | 718.05 ± 4.6 kg/m3
323.15 K, 9020 kPa, x2 = 0.3229 | 712.32 ± 4.6 kg/m3
323.15 K, 9020 kPa, x2 = 0.8941 | 765.49 ± 4.9 kg/m3
323.15 K, 10000 kPa, x2 = 0.1231 | 704.81 ± 4.5 kg/m3
323.15 K, 10000 kPa, x2 = 0.8941 | 766.39 ± 4.9 kg/m3
323.15 K, 10010 kPa, x2 = 0.3229 | 713.24 ± 4.6 kg/m3
323.15 K, 10010 kPa, x2 = 0.4272 | 718.99 ± 4.6 kg/m3
323.15 K, 10010 kPa, x2 = 0.7021 | 741.14 ± 4.8 kg/m3
323.15 K, 10020 kPa, x2 = 0.2315 | 709.17 ± 4.5 kg/m3
323.15 K, 11000 kPa, x2 = 0.3229 | 714.15 ± 4.6 kg/m3
323.15 K, 11000 kPa, x2 = 0.8941 | 767.27 ± 4.9 kg/m3
323.15 K, 11010 kPa, x2 = 0.1231 | 705.72 ± 4.5 kg/m3
323.15 K, 11010 kPa, x2 = 0.2315 | 710.07 ± 4.5 kg/m3
323.15 K, 11010 kPa, x2 = 0.4272 | 719.89 ± 4.6 kg/m3
323.15 K, 11010 kPa, x2 = 0.7021 | 742.04 ± 4.8 kg/m3
323.15 K, 12010 kPa, x2 = 0.3229 | 715.05 ± 4.6 kg/m3
323.15 K, 12010 kPa, x2 = 0.7021 | 742.93 ± 4.8 kg/m3
